Experimental data published in ChEMBL document CHEMBL1201862, “PubChem BioAssay data set” (2004).
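Method: 48-hour compound exposure of cells in 96-well plates, five concentrations, linear interpolation of endpoints. GI50 = concentration required for 50% inhibition of growth.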 Active and inactive are the calls of the source. Rule as the data show it: active = GI50 up to about 1.1 µM and inactive = higher.

Key:
Assay in all cases: NCI anticancer screen, dose series, 48 h
786-0 = tested on: 786-0
A498 = tested on: A498
A549 = tested on: A549
ACHN = tested on: ACHN
CCRF-CEM = tested on: CCRF-CEM
COLO 205 = tested on: COLO 205
DLD-1 = tested on: DLD-1
DMS-114 = tested on: DMS-114
DMS-273 = tested on: DMS-273
EKVX = tested on: EKVX
HCC 2998 = tested on: HCC 2998
HCT-116 = tested on: HCT-116
HCT-15 = tested on: HCT-15
HL-60 = tested on: HL-60
HOP-18 = tested on: HOP-18
HOP-62 = tested on: HOP-62
HT-29 = tested on: HT-29
IGROV-1 = tested on: IGROV-1
K562 = tested on: K562
KM-20L2 = tested on: KM-20L2
KM12 = tested on: KM12
LOX IMVI = tested on: LOX IMVI
LXFL 529 = tested on: LXFL 529
M14 = tested on: M14
M19-MEL = tested on: M19-MEL
MOLT-4 = tested on: MOLT-4
Malme-3M = tested on: Malme-3M
NCI-H226 = tested on: NCI-H226
NCI-H23 = tested on: NCI-H23
NCI-H460 = tested on: NCI-H460
NCI-H522 = tested on: NCI-H522
OVCAR-3 = tested on: OVCAR-3
OVCAR-5 = tested on: OVCAR-5
OVCAR-8 = tested on: OVCAR-8
RPMI-8226 = tested on: RPMI-8226
RXF 393 = tested on: RXF 393
SF-295 = tested on: SF-295
SF-539 = tested on: SF-539
SK-MEL-28 = tested on: SK-MEL-28
SK-MEL-2 = tested on: SK-MEL-2
SK-MEL-5 = tested on: SK-MEL-5
SK-OV-3 = tested on: SK-OV-3
SN12C = tested on: SN12C
SNB-19 = tested on: SNB-19
SNB-75 = tested on: SNB-75
SNB-78 = tested on: SNB-78
SR = tested on: SR
SW-620 = tested on: SW-620
TK-10 = tested on: TK-10
U-251 = tested on: U-251
UACC-257 = tested on: UACC-257
UACC-62 = tested on: UACC-62
UO-31 = tested on: UO-31
XF498 = tested on: XF498
HOP-92 = tested on: HOP-92
RXF 631 = tested on: RXF 631
CAKI-1 = tested on: CAKI-1
OVCAR-4 = tested on: OVCAR-4

COc1ccc(C)cc1C1CCC(=O)O1 (stereo not given)
GI50 (786-0): > 100 µM (inactive)
GI50 (A498): > 100 µM (inactive)
GI50 (A549): > 100 µM (inactive)
GI50 (ACHN): > 100 µM (inactive)
GI50 (CCRF-CEM): > 100 µM (inactive)
GI50 (COLO 205): > 100 µM (inactive)
GI50 (DLD-1): > 100 µM (inactive)
GI50 (DMS-114): > 100 µM (inactive)
GI50 (DMS-273): > 100 µM (inactive)
GI50 (EKVX): > 100 µM (inactive)
GI50 (HCC 2998): > 100 µM (inactive)
GI50 (HCT-116): > 100 µM (inactive)
GI50 (HCT-15): > 100 µM
GI50 (HL-60): > 100 µM (inactive)
GI50 (HOP-18): > 100 µM (inactive)
GI50 (HOP-62): > 100 µM (inactive)
GI50 (HT-29): > 100 µM (inactive)
GI50 (IGROV-1): > 100 µM (inactive)
GI50 (K562): > 100 µM (inactive)
GI50 (KM-20L2): > 100 µM (inactive)
GI50 (KM12): > 100 µM (inactive)
GI50 (LOX IMVI): > 100 µM (inactive)
GI50 (LXFL 529): > 100 µM (inactive)
GI50 (M14): > 100 µM (inactive)
GI50 (M19-MEL): > 100 µM (inactive)
GI50 (MOLT-4): > 100 µM (inactive)
GI50 (Malme-3M): > 100 µM (inactive)
GI50 (NCI-H226): > 100 µM (inactive)
GI50 (NCI-H23): > 100 µM (inactive)
GI50 (NCI-H460): > 100 µM (inactive)
GI50 (NCI-H522): > 100 µM (inactive)
GI50 (OVCAR-3): > 100 µM (inactive)
GI50 (OVCAR-5): > 100 µM (inactive)
GI50 (OVCAR-8): > 100 µM (inactive)
GI50 (RPMI-8226): > 100 µM (inactive)
GI50 (RXF 393): > 100 µM (inactive)
GI50 (SF-295): > 100 µM (inactive)
GI50 (SF-539): > 100 µM (inactive)
GI50 (SK-MEL-28): > 100 µM (inactive)
GI50 (SK-MEL-2): > 100 µM (inactive)
GI50 (SK-MEL-5): > 100 µM (inactive)
GI50 (SK-OV-3): > 100 µM (inactive)
GI50 (SN12C): > 100 µM (inactive)
GI50 (SNB-19): > 100 µM (inactive)
GI50 (SNB-75): > 100 µM (inactive)
GI50 (SNB-78): > 100 µM (inactive)
GI50 (SR): > 100 µM (inactive)
GI50 (SW-620): > 100 µM (inactive)
GI50 (TK-10): > 100 µM (inactive)
GI50 (U-251): > 100 µM (inactive)
GI50 (UACC-257): > 100 µM (inactive)
GI50 (UACC-62): > 100 µM (inactive)
GI50 (UO-31): > 100 µM (inactive)
GI50 (XF498): 63.8 µM (inactive)

O=C(/C=C/c1ccc(O)cc1)OC[C@@H](O)COC1OC(CO)C(O)C(O)C1O (stereo not given in full)
GI50 (A498): > 100 µM (inactive)
GI50 (A549): > 100 µM (inactive)
GI50 (ACHN): > 100 µM (inactive)
GI50 (CCRF-CEM): > 100 µM (inactive)
GI50 (DMS-114): > 100 µM (inactive)
GI50 (EKVX): > 100 µM (inactive)
GI50 (HCT-116): > 100 µM (inactive)
GI50 (HL-60): > 100 µM (inactive)
GI50 (HOP-62): > 100 µM (inactive)
GI50 (HOP-92): > 100 µM (inactive)
GI50 (HT-29): > 100 µM (inactive)
GI50 (IGROV-1): > 100 µM (inactive)
GI50 (K562): > 100 µM (inactive)
GI50 (KM12): > 100 µM (inactive)
GI50 (M14): > 100 µM (inactive)
GI50 (M19-MEL): > 100 µM (inactive)
GI50 (MOLT-4): > 100 µM (inactive)
GI50 (NCI-H226): 94.2 µM (inactive)
GI50 (NCI-H23): > 100 µM (inactive)
GI50 (NCI-H460): > 100 µM (inactive)
GI50 (NCI-H522): > 100 µM (inactive)
GI50 (OVCAR-5): > 100 µM (inactive)
GI50 (OVCAR-8): > 100 µM (inactive)
GI50 (RXF 393): > 100 µM (inactive)
GI50 (RXF 631): > 100 µM (inactive)
GI50 (SF-295): > 100 µM (inactive)
GI50 (SK-MEL-28): > 100 µM (inactive)
GI50 (SK-OV-3): > 100 µM (inactive)
GI50 (SNB-19): > 100 µM (inactive)
GI50 (SNB-78): > 100 µM (inactive)
GI50 (SR): > 100 µM (inactive)
GI50 (TK-10): > 100 µM (inactive)
GI50 (U-251): > 100 µM (inactive)
GI50 (UACC-257): > 100 µM (inactive)
GI50 (UO-31): > 100 µM (inactive)

CS(=O)(=O)NNS(=O)(=O)c1cccc([N+](=O)[O-])c1
GI50 (786-0): > 100 µM (inactive)
GI50 (A498): > 100 µM (inactive)
GI50 (A549): > 100 µM (inactive)
GI50 (ACHN): > 100 µM (inactive)
GI50 (CAKI-1): > 100 µM (inactive)
GI50 (CCRF-CEM): > 100 µM (inactive)
GI50 (COLO 205): > 100 µM (inactive)
GI50 (DLD-1): > 100 µM (inactive)
GI50 (DMS-114): > 100 µM (inactive)
GI50 (DMS-273): > 100 µM (inactive)
GI50 (EKVX): > 100 µM (inactive)
GI50 (HCC 2998): > 100 µM (inactive)
GI50 (HCT-116): > 100 µM (inactive)
GI50 (HCT-15): > 100 µM
GI50 (HL-60): > 100 µM (inactive)
GI50 (HOP-62): > 100 µM (inactive)
GI50 (HT-29): > 100 µM (inactive)
GI50 (IGROV-1): > 100 µM (inactive)
GI50 (K562): > 100 µM (inactive)
GI50 (KM-20L2): > 100 µM (inactive)
GI50 (KM12): > 100 µM (inactive)
GI50 (LOX IMVI): > 100 µM (inactive)
GI50 (LXFL 529): > 100 µM (inactive)
GI50 (M14): > 100 µM (inactive)
GI50 (M19-MEL): > 100 µM (inactive)
GI50 (MOLT-4): > 100 µM (inactive)
GI50 (Malme-3M): > 100 µM (inactive)
GI50 (NCI-H226): > 100 µM (inactive)
GI50 (NCI-H23): > 100 µM (inactive)
GI50 (NCI-H460): > 100 µM (inactive)
GI50 (NCI-H522): > 100 µM (inactive)
GI50 (OVCAR-4): > 100 µM (inactive)
GI50 (OVCAR-8): > 100 µM (inactive)
GI50 (RPMI-8226): > 100 µM (inactive)
GI50 (RXF 393): > 100 µM (inactive)
GI50 (RXF 631): > 100 µM (inactive)
GI50 (SF-295): > 100 µM (inactive)
GI50 (SF-539): > 100 µM (inactive)
GI50 (SK-MEL-2): > 100 µM (inactive)
GI50 (SK-MEL-5): > 100 µM (inactive)
GI50 (SN12C): > 100 µM (inactive)
GI50 (SNB-19): > 100 µM (inactive)
GI50 (SNB-75): > 100 µM (inactive)
GI50 (SR): > 100 µM (inactive)
GI50 (SW-620): > 100 µM (inactive)
GI50 (TK-10): > 100 µM (inactive)
GI50 (U-251): > 100 µM (inactive)
GI50 (UACC-257): > 100 µM (inactive)
GI50 (UACC-62): > 100 µM (inactive)
GI50 (UO-31): > 100 µM (inactive)
GI50 (XF498): > 100 µM (inactive)
